Data: patent US8791099B2, “Transition metal complexes of corroles for preventing cardiovascular diseases or disorders” (Technion Research and Development Foundation Ltd., priority 2007, dated 2014)

Columns and labels:
[1] = test system: mouse peritoneal macrophages (MPM); experiment: Cholesterol efflux from MPM of treated E^0 mice; details: drinking water 0.04 mM (8 mg/Kg/day), 14 weeks
Method: Mouse peritoneal macrophages were incubated with [^3H]-labeled cholesterol for 1 h at 37° C. followed by cell wash in ice-cold PBS (3×) and further incubation in the absence or presence of 100 μg of human HDL protein/ml for 3 h at 37° C. Cellular and medium [^3H]-labels were quantitated and HDL-mediated cholesterol efflux was calculated as the ratio of [^3H]-label in the medium/[^3H]-label in the medium+[^3H]-label in cells.

[2] = test system: mouse peritoneal macrophages (MPM); experiment: Cholesterol synthesis by MPM of treated E^0 mice; details: drinking water 0.04 mM (8 mg/Kg/day), 14 weeks
Method: Cellular cholesterol biosynthesis was assayed after incubation of macrophages (3×10^6 well^−1) overnight with DMEM containing 2% BSA followed by additional 3 h of incubation at 37° C. with [^3H]-acetate (3.3 μCi/ml). Cellular lipids were extracted with hexane:isopropanol (3:2, v:v), and the upper phase was dried under nitrogen. The lipids were then separated by TLC using an eluent of hexane:ether:acetic acid (130:30:1.5, v:v:v). Unesterified cholesterol spots were visualized by iodine vapor (by using standard for identification) and counted with β-counter.

J-774 macrophages = experiment: Cholesterol efflux from J-774 macrophages by serum of treated E^0 mice; details: drinking water 0.04 mM (8 mg/Kg/day), 14 weeks
Method: J-774 macrophages were incubated with [^3H]-labeled cholesterol for 1.5 h at 37° C. followed by cell wash in ice-cold PBS (3×) and further incubation in the presence of 15 μL mice serum for 3 h at 37° C. Cellular and medium [^3H]-labels were quantitated and HDL-mediated cholesterol efflux was calculated as the ratio of [^3H]-label in the medium/[^3H]-label in the medium+[^3H]-label in cells.

[3] = Decomposition of peroxynitrite, comparison with punicalagin; details: calculated from rate constants
Method: For initial assessment of possible superiority of the metallocorroles relative to natural antioxidants, we have determined the effect of excess (45-135 μM) punicalagin—the active polyphenolic hydrolysable tannin ingredient of pomegranate juice (Tzulker et al., 2007), on decomposition of peroxynitrite (40 μM).

SMILES | Increase in cholesterol efflux from the E^0 MPM [1] [%] | Increase of cholesterol synthesis by MPMs [2] [%] | Increase in serum-mediated cholesterol efflux from J-774 macrophages (J-774 macrophages) [%] | Minimal concentration required for reducing the half lifetime of peroxynitrite by 50% [3] [mol %]
COc1c(F)c(F)c(C2=C3C=CC(=N3)C(c3c(F)c(F)c(OC)c(F)c3F)=c3ccc4[n]3[Fe]3[n]5c(cc(S(=O)(=O)O)c5C=4c4c(F)c(F)c(OC)c(F)c4F)-c4c(S(=O)(=O)O)cc2[n]43)c(F)c1F [2-Fe, 5,10,15-tris(4-methoxy-2,3,5,6-tetrafluorophenyl)-2,17-bis(sulfonic acid)-corrolato iron(III)] | 14 | 8 | 9 | –
O=C1O[C@H]2[C@@H]3OC(=O)c4cc(O)c(O)c(O)c4-c4c(O)c(O)c5oc(=O)c6c(c(O)c(O)c7oc(=O)c4c5c76)-c4c(cc(O)c(O)c4O)C(=O)OC[C@H]3OC(O)[C@@H]2OC(=O)c2cc(O)c(O)c(O)c2-c2c1cc(O)c(O)c2O (mixture of isomers) [punicalagin, reference compound] | – | – | – | 250
